Results taken from ChEMBL document CHEMBL3813680, “Discovery of a 2-hydroxyacetophenone derivative as an outstanding linker to enhance potency and β-selectivity of liver X receptor agonist” (Bioorg Med Chem, 2016).

Legend:
[1] = biological target: T1, Oxysterols receptor LXR-alpha (Homo sapiens, UniProt Q13133); assay: Agonist activity at GAL4 fused LXRalpha (unknown origin) transfected in CHOK1 cells after 24 hrs by luciferase reporter gene assay
T1 sequence (Q13133 whole entry): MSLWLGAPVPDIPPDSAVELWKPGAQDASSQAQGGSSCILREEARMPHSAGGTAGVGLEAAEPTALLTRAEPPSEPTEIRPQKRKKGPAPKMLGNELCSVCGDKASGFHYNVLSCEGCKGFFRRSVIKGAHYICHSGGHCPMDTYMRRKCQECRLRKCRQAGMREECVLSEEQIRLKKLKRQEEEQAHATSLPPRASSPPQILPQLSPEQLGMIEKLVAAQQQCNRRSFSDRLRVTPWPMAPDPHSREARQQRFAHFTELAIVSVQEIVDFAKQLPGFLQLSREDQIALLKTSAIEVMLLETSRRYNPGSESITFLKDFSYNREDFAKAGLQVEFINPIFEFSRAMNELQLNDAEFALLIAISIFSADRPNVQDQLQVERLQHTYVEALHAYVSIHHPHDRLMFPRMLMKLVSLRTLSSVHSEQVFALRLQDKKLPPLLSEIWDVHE

[2] = biological target: T2, Oxysterols receptor LXR-beta (Homo sapiens, UniProt P55055); assay: Agonist activity at GAL4 fused LXRbeta-LBD (unknown origin) transfected in CHOK1 cells after 24 hrs by luciferase reporter gene assay
T2 sequence (P55055 whole entry): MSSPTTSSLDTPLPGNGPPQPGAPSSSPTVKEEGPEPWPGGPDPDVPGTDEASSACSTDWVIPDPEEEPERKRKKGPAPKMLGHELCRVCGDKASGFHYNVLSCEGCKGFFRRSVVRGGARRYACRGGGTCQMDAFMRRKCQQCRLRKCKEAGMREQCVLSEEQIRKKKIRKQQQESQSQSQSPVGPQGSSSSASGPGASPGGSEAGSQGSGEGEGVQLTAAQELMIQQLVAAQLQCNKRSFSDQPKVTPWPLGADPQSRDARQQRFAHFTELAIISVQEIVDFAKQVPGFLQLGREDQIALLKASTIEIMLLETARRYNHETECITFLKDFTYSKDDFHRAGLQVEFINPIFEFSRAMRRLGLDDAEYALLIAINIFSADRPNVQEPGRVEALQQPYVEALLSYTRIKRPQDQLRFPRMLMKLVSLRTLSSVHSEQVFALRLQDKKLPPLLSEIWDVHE

[3] = Cmax in mouse plasma at 10 mg/kg, po measured up to 24 hrs by HPLC-LC-MS/MS analysis; assay type: ADME, organism-based; parameters: dose 10 mg/kg, route oral
[4] = AUC in mouse plasma at 10 mg/kg, po measured up to 24 hrs by HPLC-LC-MS/MS analysis; assay type: ADME, organism-based; parameters: time < 24 hr, dose 10 mg/kg, route oral
Mus musculus [5] = assay: Antiatherosclerosis activity in LDL receptor knock out mouse model assessed as decrease in area of lipid accumulation at 1 mg/kg, po by HPLC analysis relative to control; assay type: functional; parameters: scale not given: the % may be the effect or the level left
Mus musculus [6] = assay: Antiatherosclerosis activity in LDL receptor knock out mouse model assessed as decrease in area of lipid accumulation at 3 mg/kg, po by HPLC analysis relative to control; assay type: functional; parameters: scale not given: the % may be the effect or the level left
Mus musculus [7] = assay: Antiatherosclerosis activity in LDL receptor knock out mouse model assessed as increase in TG levels at 1 mg/kg, po by HPLC analysis relative to control; assay type: functional
Mus musculus [8] = assay: Antiatherosclerosis activity in LDL receptor knock out mouse model assessed as increase in TG levels at 3 mg/kg, po by HPLC analysis relative to control; assay type: functional
Mus musculus [9] = assay: Antiatherosclerosis activity in LDL receptor knock out mouse model assessed as LDL-C levels at 1 mg/kg, po by HPLC analysis relative to control; assay type: functional
Mus musculus [10] = assay: Antiatherosclerosis activity in LDL receptor knock out mouse model assessed as decrease in LDL-C levels at 3 mg/kg, po by HPLC analysis relative to control; assay type: functional; parameters: scale not given: the % may be the effect or the level left
Mus musculus [11] = assay: Antiatherosclerosis activity in LDL receptor knock out mouse model assessed as increase in HDL-C levels at 1 mg/kg, po by HPLC analysis relative to control; assay type: functional
Mus musculus [12] = assay: Antiatherosclerosis activity in LDL receptor knock out mouse model assessed as increase in HDL-C levels at 3 mg/kg, po by HPLC analysis relative to control; assay type: functional
Mus musculus [13] = assay: Antiatherosclerosis activity in LDL receptor knock out mouse model assessed as increase in TC levels at 1 mg/kg, po by HPLC analysis relative to control; assay type: functional
Mus musculus [14] = assay: Antiatherosclerosis activity in LDL receptor knock out mouse model assessed as increase in TC levels at 3 mg/kg, po by HPLC analysis relative to control; assay type: functional
Mus musculus [15] = assay: Upregulation of ABCA1 mRNA expression in LDL receptor knock-out mouse blood at 1 mg/kg, po relative to control; assay type: functional
Mus musculus [16] = assay: Upregulation of ABCA1 mRNA expression in LDL receptor knock-out mouse blood at 3 mg/kg, po relative to control; assay type: functional
Mus musculus [17] = assay: Upregulation of SREBP-1c expression in LDL receptor knock-out mouse liver at 1 mg/kg, po relative to control; assay type: functional
Mus musculus [18] = assay: Upregulation of SREBP-1c expression in LDL receptor knock-out mouse liver at 3 mg/kg, po relative to control; assay type: functional

EC50 [1]: 200 nM
EC50 [2]: 7 nM
Cmax [3]: 503 ng/mL
AUC at 24 h [4]: 3030 ng·h/mL
SMILES: CCCc1cc(C(O)(C(F)(F)F)C(F)(F)F)ccc1Oc1ccc(C(=O)CN2C(=O)NC(C)(c3ccc(OC(C)C)cn3)C2=O)c(O)c1 (single isomer, unassigned; (-))
Activity (Mus musculus [5]): 62%
Activity (Mus musculus [6]): 59%
Activity (Mus musculus [7]): 152%
Activity (Mus musculus [8]): 166%
Activity (Mus musculus [9]): 108%
Activity (Mus musculus [10]): 97%
Activity (Mus musculus [11]): 115%
Activity (Mus musculus [12]): 116%
Activity (Mus musculus [13]): 111%
Activity (Mus musculus [14]): 102%
fold change (FC) (Mus musculus [15]): 2.1
fold change (FC) (Mus musculus [16]): 3
fold change (FC) (Mus musculus [17]): 1.2
fold change (FC) (Mus musculus [18]): 1.5
